Test results taken from paper PMC3234597, “Two Panels of Steroid Receptor Luciferase Reporter Cell Lines for Compound Profiling” (Combinatorial Chemistry & High Throughput Screening, 2011).
Where two headings read alike, the source gives them in different places.

Experiments:
Assay type in all cases: cell-based
[1] = biological target: T1, human GR (full-length) (Homo sapiens, UniProt P04150); assay: U2OS-GR/MMTV luciferase reporter cell line (full-length receptor); settings: for Log EC50: agonist mode, 20 h, log10 of molar EC50, mean ± SEM; for Log EC50 / Log IC50: GR/MMTV; for Log IC50: antagonist mode, in the presence of 5 nM dexamethasone, log10 of molar IC50, mean ± SEM
T1 construct: expression vectors encoding full-length steroid receptors: pcDNA3-hAR and pcDNA3-hGR; host or cells: U2OS
T1 sequence (P04150 1-777): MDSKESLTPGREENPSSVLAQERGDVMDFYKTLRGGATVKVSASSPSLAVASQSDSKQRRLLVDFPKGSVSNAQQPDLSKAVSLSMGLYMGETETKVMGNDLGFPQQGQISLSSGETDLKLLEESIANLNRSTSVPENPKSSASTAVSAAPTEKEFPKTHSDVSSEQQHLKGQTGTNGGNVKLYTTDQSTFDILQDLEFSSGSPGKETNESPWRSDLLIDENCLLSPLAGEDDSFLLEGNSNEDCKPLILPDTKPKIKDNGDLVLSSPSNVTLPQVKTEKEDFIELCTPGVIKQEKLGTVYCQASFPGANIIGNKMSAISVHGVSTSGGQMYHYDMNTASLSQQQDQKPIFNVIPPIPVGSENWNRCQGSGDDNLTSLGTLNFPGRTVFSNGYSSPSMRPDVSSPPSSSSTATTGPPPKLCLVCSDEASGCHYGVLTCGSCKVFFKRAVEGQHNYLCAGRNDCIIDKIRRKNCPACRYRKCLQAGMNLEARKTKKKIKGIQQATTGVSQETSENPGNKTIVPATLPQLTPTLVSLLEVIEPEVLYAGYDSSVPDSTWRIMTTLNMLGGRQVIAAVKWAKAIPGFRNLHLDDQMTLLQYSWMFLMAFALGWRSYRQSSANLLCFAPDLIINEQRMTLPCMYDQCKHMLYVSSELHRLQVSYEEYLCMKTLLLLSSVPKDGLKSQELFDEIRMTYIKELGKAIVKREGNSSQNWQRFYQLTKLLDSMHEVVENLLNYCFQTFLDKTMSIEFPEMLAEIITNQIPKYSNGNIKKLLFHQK

[2] = biological target: T2, AR-LBD fused to Gal4-DBD (co-expressed with full-length AR) (Homo sapiens, UniProt P10275); assay: U2OS-AR-LBD/9xGal4UAS luciferase reporter cell line; settings: for Log EC50: agonist mode, AR-LBD/9xGal4UAS, 20 h, log10 of molar EC50, mean ± SEM
T2 construct: the following primers were used for the amplification of the LBD region; expressed in transfected cells; host or cells: U2OS
T2 sequence (P10275 669-900 limits assumed): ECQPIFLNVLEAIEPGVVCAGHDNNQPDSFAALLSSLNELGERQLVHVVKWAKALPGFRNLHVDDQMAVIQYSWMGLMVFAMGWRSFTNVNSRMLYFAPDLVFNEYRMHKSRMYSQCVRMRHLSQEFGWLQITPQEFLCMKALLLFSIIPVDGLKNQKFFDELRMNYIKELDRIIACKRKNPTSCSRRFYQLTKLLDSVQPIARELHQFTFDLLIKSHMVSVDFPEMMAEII

[3] = biological target: T3, human AR (full-length) (Homo sapiens, UniProt P10275); assay: U2OS-AR/MMTV luciferase reporter cell line (full-length receptor); settings: for Log EC50: agonist mode, 20 h, log10 of molar EC50, mean ± SEM; for Log EC50 / Log IC50: AR/MMTV; for Log IC50: antagonist mode, in the presence of 0.05 nM dihydrotestosterone, log10 of molar IC50, mean ± SEM
T3 construct: expression vectors encoding full-length steroid receptors: pcDNA3-hAR and pcDNA3-hGR; host or cells: U2OS
T3 sequence (P10275 1-920): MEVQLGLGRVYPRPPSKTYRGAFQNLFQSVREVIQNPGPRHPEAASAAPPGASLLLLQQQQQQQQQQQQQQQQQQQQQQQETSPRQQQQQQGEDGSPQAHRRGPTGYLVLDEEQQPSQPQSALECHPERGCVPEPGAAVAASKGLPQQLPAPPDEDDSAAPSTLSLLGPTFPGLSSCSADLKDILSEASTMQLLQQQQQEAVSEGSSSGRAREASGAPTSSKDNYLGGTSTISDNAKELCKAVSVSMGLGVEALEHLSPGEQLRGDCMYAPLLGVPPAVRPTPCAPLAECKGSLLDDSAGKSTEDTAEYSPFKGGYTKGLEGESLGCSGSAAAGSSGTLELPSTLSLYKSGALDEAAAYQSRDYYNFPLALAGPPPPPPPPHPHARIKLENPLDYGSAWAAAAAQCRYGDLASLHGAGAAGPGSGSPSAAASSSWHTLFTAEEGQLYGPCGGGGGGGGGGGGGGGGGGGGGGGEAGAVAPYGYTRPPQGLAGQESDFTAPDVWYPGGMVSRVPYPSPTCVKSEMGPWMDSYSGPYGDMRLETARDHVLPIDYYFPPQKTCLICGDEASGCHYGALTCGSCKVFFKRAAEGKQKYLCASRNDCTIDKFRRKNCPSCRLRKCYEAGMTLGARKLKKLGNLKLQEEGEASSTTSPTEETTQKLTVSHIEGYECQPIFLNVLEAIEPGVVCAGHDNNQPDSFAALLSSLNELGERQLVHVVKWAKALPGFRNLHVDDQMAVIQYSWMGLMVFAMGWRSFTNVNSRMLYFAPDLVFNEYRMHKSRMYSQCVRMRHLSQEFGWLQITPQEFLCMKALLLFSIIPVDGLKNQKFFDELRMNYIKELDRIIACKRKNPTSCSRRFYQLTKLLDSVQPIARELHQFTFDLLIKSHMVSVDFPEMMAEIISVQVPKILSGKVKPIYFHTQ

## CC[C@@H]1Cc2cc(O)ccc2C2=C1c1ccc(O)cc1C[C@H]2CC (relative stereo) [R.R-THC, (R,R)-cis-diethyltetrahydro-2,8-chrysenediol]
[1]
  Log EC50: > -5.00 M
  Log IC50: > -5.00 M
[2]
  Log IC50: > -5.500 M
  Log EC50: > -5.00 M
[3]
  Log EC50: > -5.00 M
  Log IC50: -5.22 ± 1.26 M

## C[C@]12CCC(=O)C=C1CC[C@@H]1[C@@H]2[C@@H](O)C[C@]2(C=O)[C@@H](C(=O)CO)CC[C@@H]12 [Aldosterone, aldosterone]
[1]; read-out: Log EC50 (converted)
  EC50: 0.209 µM
[2]
  EC50: > 10 µM
[3]
  EC50: > 10 µM

## C[C@]12C[C@H](O)[C@H]3[C@@H](CCC4=CC(=O)CC[C@@]43C)[C@@H]1CC[C@@H]2C(=O)CO [Corticosterone, corticosterone]
[1]; read-out: Log EC50 (converted)
  EC50: 0.0269 µM

## C#C[C@]1(O)CC[C@H]2[C@@H]3CCC4=Cc5oncc5C[C@]4(C)[C@H]3CC[C@@]21C [Danazol, danazol]
[1]; read-out: Log EC50 (converted)
  EC50: > 10 µM

## O=c1c(-c2ccc(O)cc2)coc2cc(O)cc(O)c12 [Genistein, genistein]
[1]
  EC50: > 10 µM
[2]
  EC50: > 10 µM
[3]
  EC50: > 10 µM

## C[C@]12CC[C@@H]3c4ccc(O)cc4C[C@@H](CCCCCCCCC[S+]([O-])CCCC(F)(F)C(F)(F)F)[C@H]3[C@@H]1CC[C@@H]2O (some centres unmarked) [ICI 182.780]
[1]
  Log EC50: > -5.00 M
  Log IC50: > -5.00 M
[2]
  Log IC50: > -5.00 M
  Log EC50: > -5.00 M
[3]
  Log EC50: > -5.00 M
  Log IC50: > -5.00 M

## CCCc1c(-c2ccc(O)cc2)nn(-c2ccc(O)cc2)c1-c1ccc(O)cc1 [PPT, propyl pyrazole triol]
[1]; read-out: Log EC50 (converted)
  EC50: > 10 µM
[2]
  EC50: > 10 µM
[3]
  EC50: > 10 µM

## CCC(=O)[C@@]1(C)CC[C@H]2[C@@H]3CCC4=CC(=O)CCC4=C3CC[C@@]21C [Promegestone (R5020), promegestone]
[1]; read-out: Log EC50 (converted)
  EC50: > 10 µM
[2]
  EC50: > 10 µM
  IC50: 0.407 µM
[3]
  EC50: > 10 µM
  IC50: 0.0126 µM

## C[C@]12C=CC(=O)C=C1CC[C@H]1[C@@H]3C[C@@H](O)[C@](O)(C(=O)CO)[C@@]3(C)C[C@H](O)[C@@]12F [Triamcinolone, triamcinolone]
[1]; read-out: Log EC50 (converted)
  EC50: 0.0129 µM
